Data reported in patent publication US6017933A, “Mannich bases of conjugated styryl ketones” (University of Saskatchewan Technologies Inc., priority 1999, dated 2000).
Where “and” joins values, the source holds several entries; their conditions need not be identical. Equal entries are not always repeated. Entries after “also recorded” stand apart in the source; their conditions may differ. Structures can show the parent of a compound that is named as a salt. Where two headings read alike, the source gives them in different places.

Columns and labels:
[1] = system: P388 cells; assay: Cytotoxicity, murine P388 leukemic cells (P388 D1); details: read-out: P388 cells IC50
[2] = system: CEM cells; assay: Cytotoxicity, CEM human T-lymphocytes; details: for IC50: Homo sapiens, CCRF-CEM
[3] = system: pathogenic yeasts and filamentous fungi; assay: Screening of conjugated styryl ketones against pathogenic yeasts and filamentous fungi; format: cell-based
Text: Approximately 90 compounds belonging to the conjugated styryl ketone class were screened for their activity against pathogenic yeasts and filamentous fungi. […] Since none of the previously examined compounds provided encouraging results for further studies, a series of α,β-unsaturated ketones with two sites for thiol alkylation reaction were synthesized.

[4] = system: Aspergillus fumigatus conidia; assay: Kill-curve experiment, Aspergillus fumigatus conidia; format: cell-based
Description: Kill-Curve Experiment: 5 ml conidial suspension each of the AMB-, and ITZ-susceptible (W73355) and the resistant (AB16.4 and ITZ70) isolates prepared in PYG broth (1×10^6 conidia/ml) was incubated at 35° C. in the presence of 5 μm of AMB or 5 μm ITZ or 50 μm Compound 9b. At various time intervals, 0.1 ml aliquots of the conidial suspension were removed, diluted appropriately to obtain 10^2 to 10^4 fold dilution, and 0.1 ml aliquots were spread in duplicate on PYG agar plates. […] Identical treatment of the conidial suspension in the absence of the drug was used as the growth control.

[5] = system: Aspergillus fumigatus; assay: Murine pulmonary aspergillosis model; format: in vivo, Aspergillus fumigatus in DBA/2J female mice
Description: In vivo susceptibility studies: DBA/2J female mice (Jackson Laboratories) weighing 20-23 grams (≈6 weeks old) were used. The mice were immunosuppressed by 3 consecutive subcutaneous injections (0.5 ml each) of cortisone acetate (250 mg/kg; Sigma Chemical Company) in sterile distilled water containing 0.1% Tween 80. The immunosuppressed mice were anesthetized by exposing to ether in a desiccator for 45±5 seconds and infected with 20 μl inoculum containing 1×10^6 conidia delivered to the nares of the animals as a single droplet from a micropipet. Compound 9b and AMB were dissolved in dimethyl sulfoxide (DMSO) and administered 24 hr post infection by intraperitoneal injection in 0.2 ml PBS per dose. […] The efficacy of chemotherapy was assessed by determining percent survival and the fungal load (CFU/lungs) of infected animals as determined by semiquantitative organ culture.

[6] = system: ITZ-resistant Aspergillus fumigatus; assay: MIC and MLC, ITZ-resistant Aspergillus fumigatus, broth macrodilution; details: for MIC: 48 h
[7] = system: L1210 cells; assay: Cytotoxicity, murine L1210 leukemic cells; format: cell-based; details: Mus musculus, mean
[8] = system: Aspergillus fumigatus; assay: MIC and MLC, Aspergillus fumigatus, broth macrodilution
[9] = system: Candida albicans; assay: Vaginal candidiasis in ovariectomized rats; format: in vivo, Candida albicans in ovariectomized rats; details: in Mineral Oil
Description: As well, ovariectomized rats predisposed for Candida albicans infection by estrogen treatment were infected vaginally with 1×10^7 CFU per ml to produce vaginal candidiasis. The infected animals were treated with Compound 9b once daily (100 mg/kg=2 mg/[…]) for 5 days. Vaginal fluid was collected from each animal 72 hr post-treatment and CFUs per rat were determined by plating the […] fluid on PYG agar containing 200 ug/ml gentamicin.

[10] = system: AMB-resistant Aspergillus fumigatus; assay: MIC and MLC, AMB-resistant Aspergillus fumigatus, broth macrodilution; details: for MIC: 48 h
[11] = system: human tumors; assay: Cytotoxicity, human tumor cell line panel (approximately 55 lines)
[12] = system: Molt 4/C8 cells; assay: Cytotoxicity, Molt 4/C8 human T-lymphocytes
[13] = system: proton translocating ATPase of Saccharomyces cerevisiae; details: cited from earlier work

With `CCN1CCC(O)(/C=C/c2ccc(Cl)cc2)C(C(=O)/C=C/c2ccc(Cl)cc2)C1` (centres unmarked) [Compound 9b, (3-[3-(4-chlorophenyl)-2-propenoyl]-4-[2-(4-chlorophenyl)vinylene]-1-ethyl-4-piperidinol hydrochloride] the IC50 [1] was 1.1 µM, the IC50 ([2]; read-out: CEM cells IC50) was 20.1 µM and the IC50 ([2]; read-out: IC50 CEM) was 20.1 µM. The “TIL1210 (CEM cells)” value ([2]; IC50 T-lymphocytes (CEM)/IC50 L1210) was 2.89, the “TIP388 (CEM cells)” value ([2]; IC50 T-lymphocytes (CEM)/IC50 P388) was 18.31 and the “TIht (CEM cells)” value ([2]; IC50 T-lymphocytes (CEM)/IC50 human tumors) was 0.78. For the same compound, the “antifungal activity (in words)” value [3] was “activity against both pathogenic yeasts and filamentous fungi at low concentrations”, the killing at 50 µM ([4]; Aspergillus fumigatus, 50 μm, within 24 hr) was ≥ 90% and the “fungicidal activity against AMB-resistant and ITZ-resistant isolates” value ([4]; data not shown) was “as susceptible to the fungicidal activity of Compound 9b as the susceptible one”. The “reduction in CFU/lung” value ([5]; 6.25 mg/kg/day) was 50%, the mortality rate ([5]; 6.5 mg/kg/day for five days, mice) was “did not show any greater mortality rate than the placebo or the AMB-treated groups” and the “fungal load of infected animals (in words)” value ([5]; mouse, in vivo, hydrochloride) was “reduced significantly; also recorded: not as efficient as AMB for the reduction of fungal load”. The “survival of infected animals” value ([5]; vs DMSO placebo) was “did not improve significantly over the placebo group”, the MIC ([6]; read-out: MIC Mean ± SD) was 10.9 ± 6.35 µM and the MIC ([6]; read-out: MIC Range) was 3.12 to 25 µM. The MFC ([6]; read-out: MLC Range) was 6.25 to 25 µM, the IC50 [7] was 6.96 µM and the MIC ([8]; Aspergillus fumigatus, 48 h, read-out: MIC Mean ± SD) was 11.9 ± 5.32 µM. The MIC ([8]; Aspergillus fumigatus, 48 h, read-out: MIC Range) was 6.25 to 25 µM, the MFC ([8]; Aspergillus fumigatus, read-out: MLC Range) was 12.5 to 25 µM and the MIC ([8]; Aspergillus fumigatus, read-out: mean MIC value) was 11.9 µM. The “effectiveness compared with ITZ and AMB” value ([8]; susceptible isolates) was “less effective than ITZ and AMB in susceptible isolates”, the “MLC values relative to MIC values” ([8]; various Aspergillus fumigatus isolates) was “either the same as or twofold higher than the MIC values” and the “% CFU reduction” value [9] was 97.4%. For the same compound, the “Mean Value CFU/rat” value ([9]; mean of 6 animals, S.D. 1.7 × 10^4) was 1.2 × 10^4 CFU/rat, the CFU/rat ([9]; individual animals, 100 mg/kg once daily for 5 days, 72 hr post-treatment, hydrochloride, 100 mg/kg) was 4.6 × 10^4 CFU/rat and 4.2 × 10^3 CFU/rat and 8.3 × 10^2 CFU/rat and 1.7 × 10^4 CFU/rat and 3.5 × 10^2 CFU/rat and 6.5 × 10^3 CFU/rat and the MIC ([10]; read-out: MIC Mean ± SD) was 9.85 ± 3.53 µM. The MIC ([10]; read-out: MIC Range) was 6.25 to 12.5 µM, the MFC ([10]; read-out: MLC Range) was 12 to 25 µM and the “IC50 relative to mean MIC for Aspergillus fumigatus” value ([11]; mammalian cells (human tumor; b359 also Molt 4/C8 and CEM)) was 2-3 fold. For the same compound, the IC50 ([11]; read-out: human tumors IC50, mean graph midpoint, approximately 55 cell lines, hydrobromide salts used for 4a, 11a-e) was 25.7 µM, the IC50 ([11]; read-out: mean IC50 value for 55 different human tumour cells) was 25.7 µM and the “TIL1210 (Molt 4/C8 cells)” value ([12]; IC50 T-lymphocytes (Molt 4/C8)/IC50 L1210) was 4.46. For the same compound, the “TIP388 (Molt 4/C8 cells)” value ([12]; IC50 T-lymphocytes (Molt 4/C8)/IC50 P388) was 28.24, the “TIht (Molt 4/C8 cells)” value ([12]; IC50 T-lymphocytes (Molt 4/C8)/IC50 human tumors) was 1.21 and the IC50 ([12]; read-out: IC50 Molt 4/C8) was 31.1 µM. For the same compound, the IC50 ([12]; read-out: Molt 4/C8 cells IC50) was 31.1 µM.
In the case of `COc1ccc2[nH]c([S+]([O-])Cc3ncc(C)c(OC)c3C)nc2c1` (centres unmarked) [omeprazole], the “inhibition of proton translocating ATPase” value [13] is listed as “inhibited the proton translocating ATPase of Saccharomyces cerevisiae”.
